Reference: patent US6172205A, “Synthetic process toward total synthesis of eleutherobin and its analogues and uses thereof” (The Trustees of Columbia in the City of New York, priority 1998, dated 2001)

Columns and labels:
P-glycoprotein = P-glycoprotein substrate behaviour inferred from resistance of SKVBL cells; assay type: cell-based, human
Procedure: Human non-small cell lung carcinoma cells, A549, were maintained in RPMI 1640 containing 10% fetal bovine serum and 1% penicillin-streptomycin (Gibco Laboratories, Grand Island N.Y.) at 37° C. in 7% CO2. The Taxol-resistant cell line A549-T12 was selected for resistance to Taxol and maintained in a final concentration of 12 nM drug (21). Human ovarian carcinoma cells SKOV3 and the MDR variant SKVBL (obtained from Dr. V. Ling) were maintained in α-mem plus ribonucleotides, deoxynucleotides, 15% fetal bovine serum and 1% penicillin-streptomycin (Gibco Laboratories) at 37° C. in 5% CO2. SKVBL cells were maintained in […] vinblastine (Sigma Chemical Co.).
Taxol-resistant and sensitive cell lines were seeded into 12-well plates at a density of 5×10^4 cells per well and allowed a period of 12 h for attachment prior to treatment. Cells were exposed to 10-fold serial dilutions of each compound (10^-10 to 10^-6 M) for 72 h. Cells were then trypsinized and counted (Coulter counter model ZF0031, Coulter Corp., Miami, Fla.). The IC50 was determined by plotting cell number against log of the drug concentration and this was used to determine the concentration of compound resulting in 50% growth inhibition compared to untreated cells. Each cell line was assayed in a minimum of 3 independent experiments with each compound and the results expressed as the mean IC50.
The cytotoxic efficacy of eleutherobin and its derivatives (FIG. 6) was evaluated in two drug sensitive human cancer cell lines and their Taxol-resistant counterparts. The results are summarized in Table I in order of decreasing potency. […] The Taxol-resistant cell line SKVBL overexpresses high levels of P-glycoprotein (22). […] The only difference between the two agents is the enantiomeric relationship in the carbohydrate (2'-acetylarabinose) sector (FIG. 6). […] This cell line expressed high levels of MDR1 resulting in Taxol-resistance equal or greater than 1666 -fold compared to the Taxol-sensitive SKOV3 cell line.

tumor cell lines = conditions: variety of tumor cell lines; cited from earlier work
microtubule protein = experiment: Stability of microtubules against Ca++-induced depolymerization; assay type: biochemical, calf; conditions: 10 mM CaCl2
Procedure: (§1) Eleutherobin and its derivatives were synthesized as described (18,19). Taxol was obtained from the Drug Development Branch, National Cancer Institute (Bethesda, Md.). All compounds were dissolved in dimethyl sulfoxide (Sigma Chemical Co., St. Louis, Mo.) at stock concentrations of 5 mM and stored at -20° C. All control samples contained an equal volume of DMSO. GTP was obtained from Sigma Chemical Co. And dissolved in sterile distilled water at a concentration of 10 mM and stored at -20° C. Microtubule protein was purified from calf brains by two cycles of temperature-dependent assembly and disassembly (20) and stored in liquid nitrogen prior to use. The anti-mouse β-tubulin monoclonal antibody T-4026 was obtained from Sigma Chemical Co.
(§2) The ability of each compound to polymerize tubulin was evaluated by recording the change in turbidity of microtubule protein at 350 nm for 80 min in a spectrophotometer (UVIKON, Research Instruments Int., SD, Calif.). One mg of purified microtubule protein was diluted in assembly buffer containing 0.1 M MES, 1 mM EGTA, 0.5 mM MgCl2 and 3 M glycerol, pH 6.6. All compounds were evaluated at a concentration of 10 μM at 37° C. GTP was used at a final concentration of 1 mM. Microtubule stability was assessed by the addition of 10 mM Ca^++. changes from t=0-10 min were used to calculate initial slopes from the linear portion of each curve. These values were used to calculate the activity of each compound (relative to the activity of Taxol which was assigned a value of 100%).
The ability of each compound to polymerize and/or stabilize microtubules was assessed (FIG. 7). To investigate whether eleutherobin and its derivatives shared the microtubule stabilizing properties of Taxol, 10 mM CaCl2 was added to each sample after maximum microtubule polymerization occurred, and the effects on turbidity recorded spectrophotometrically. A positive control was included in which 1 mM GTP was used to confirm the ability of GTP-stabilized microtubules to undergo Ca^++ induced depolymerization.
The ability of this compound to stabilize microtubules formed in the presence of GTP was examined. After a period of 15 min, 10 mM Ca^++ was added and the change in turbidity recorded.

[1] = tested on: tubulin / microtubule protein; experiment: Tubulin polymerization by turbidity at 350 nm in the absence of GTP; assay type: biochemical, calf; conditions: 10 μM, 37 °C, relative to 10 μM Taxol (100%)
Procedure: as §1
as §2, with “GTP was used at a final concentration of 1 mM.” left out
The polymerization activity of these compounds was also assessed by determining the slope of the linear portion of each curve at A350 nm (t=0-10 min), and expressing this relative to Taxol (which was assigned a value of 100% (FIG. 8). The order of activity of eleutherobin and derivatives using this method, corroborates the results obtained from cytotoxicity studies.

In the case of `CO[C@]12C=C[C@](C)(O1)[C@@H](OC(=O)/C=C/c1cn(C)cn1)C[C@H]1C(C)=CC[C@H](C(C)C)[C@H]1/C=C\2CO[C@@H]1OC[C@@H](O)[C@@H](O)[C@@H]1OC(C)=O` [Eleutherobin], the “P-glycoprotein substrate (in words)” value (P-glycoprotein) is given as “excellent substrates for P-glycoprotein”, the “potency in tumor cell lines (in words)” value (tumor cell lines) is given as “excellent potency in a variety of tumor cell lines” and the “stabilization against Ca++-induced depolymerization (in words)” value (microtubule protein) is given as “stabilized microtubules against Ca^++ -induced depolymerization”. The “polymerization activity relative to Taxol” value [1] was 94%.
